In patent US9127040B2, “Regulation of sodium channels by PLUNC proteins” (The University of North Carolina at Chapel Hill, priority 2011, dated 2015):
Ends that are not written are not given here.

Legend:
βENaC = molecular target: T1, βENaC (Homo sapiens, UniProt P51168); assay: Biotinylated peptide pull-down of ENaC subunits from HEK293T cells; format: binding
T1 construct: expressed in transfected cells; host or cells: HEK293T cells (lysate)
T1 sequence (P51168 1-640): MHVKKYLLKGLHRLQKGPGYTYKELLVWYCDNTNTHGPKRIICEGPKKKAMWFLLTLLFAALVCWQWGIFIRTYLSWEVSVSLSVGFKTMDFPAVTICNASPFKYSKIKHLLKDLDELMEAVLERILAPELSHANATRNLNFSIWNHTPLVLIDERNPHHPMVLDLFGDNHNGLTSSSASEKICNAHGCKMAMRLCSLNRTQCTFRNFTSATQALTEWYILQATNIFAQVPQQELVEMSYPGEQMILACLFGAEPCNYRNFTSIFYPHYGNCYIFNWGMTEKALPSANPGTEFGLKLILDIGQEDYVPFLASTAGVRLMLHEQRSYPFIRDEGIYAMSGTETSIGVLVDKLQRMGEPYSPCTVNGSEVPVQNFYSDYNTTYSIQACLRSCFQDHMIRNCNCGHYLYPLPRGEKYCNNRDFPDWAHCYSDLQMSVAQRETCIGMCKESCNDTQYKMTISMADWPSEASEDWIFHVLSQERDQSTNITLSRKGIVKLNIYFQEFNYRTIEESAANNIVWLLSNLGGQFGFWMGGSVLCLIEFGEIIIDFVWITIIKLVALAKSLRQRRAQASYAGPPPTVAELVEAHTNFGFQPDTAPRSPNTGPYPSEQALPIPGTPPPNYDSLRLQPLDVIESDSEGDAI
Method: (§1) HEK293T cells were transfected with double-tagged human ENaC subunits with HA and V5 epitopes at the N- and C-termini, respectively, in combination with wild-type untagged subunit cDNA. When all three ENaC subunits were expressed, 0.5 μg of each subunit were transfected per well. When expressed individually, 0.75 μg of the subunit were transfected per well. The transfected cells were lysed 24 h later using NP-40 buffer with 1× complete EDTA-free protease inhibitor (Roche, Basel, Switzerland). The lysate was centrifuged at 16,300×g for 15 minutes at 4° C. and the supernatant collected. Protein concentration was determined using the BCA assay and 500 μg of protein plus 0.25 mg peptide and 100 μL of neutravidin were added to a spin column and rotated end-over-end at 4° C. for 24 h (all ThermoFisher Scientific, Rockford, Ill., USA). Flow-through was collected by centrifugation at 1000×g for 30 s. The beads were then washed 5× with NP-40 buffer. Bound protein was eluted by boiling at 95° C. for 10 minutes in 75 μL of 2×LDS NuPAGE sample buffer with 1× sample reducing agent followed by centrifugation at 16,300×g for 2 minutes. Samples were resolved on 4-12% Bis-Tris gels in MES and transferred to a nitrocellulose membrane using iBlot, setting P3 for 8 min (Invitrogen, Carlsbad, Calif., USA). The membrane was probed using 1:1000 anti-V5 antibody (Invitrogen, Carlsbad, Calif., USA) overnight at 4° C. in 3% fish gelatin in TBS-T. The blot was then incubated for 1 h at room temperature with an ECL sheep anti-mouse IgG secondary antibody and detected by ECL reagent (ThermoFisher Scientific, Waltham, Mass., USA) or by incubation with a goat anti-mouse IRDye secondary antibody and analyzed by an Odyssey infrared imaging system (LI-COR Biosciences, Lincoln, Nebr., USA).
Peptide pull-down assays were performed as described above. Samples were eluted by the addition of 100 μL of 0.1 M sodium citrate, pH 5.5, 0.1% SDS to the beads and incubating at 100° C. for 2 minutes, followed by centrifugation at 16,300×g for 2 minutes. […]

γENaC = molecular target: T2, γENaC (Homo sapiens, UniProt P51170); assay: as above; format: binding; details: subunits individually expressed
T2 construct: expressed in transfected cells; host or cells: HEK293T cells (lysate)
Method: as §1, with “The beads were then washed 5× with NP-40 buffer. Bound protein was eluted by boiling at 95° C. for 10 minutes in 75 μL of 2×LDS NuPAGE sample buffer with 1× sample reducing agent followed by centrifugation at 16,300×g for 2 minutes. Samples were resolved on 4-12% Bis-Tris gels in MES and transferred to a nitrocellulose membrane using iBlot, setting P3 for 8 min (Invitrogen, Carlsbad, Calif., USA).” left out

αENaC = molecular target: T3, αENaC (Homo sapiens, UniProt P37088); assay: as above; format: binding; design: expressed in transfected cells; host or cells: HEK293T cells (lysate); details: subunits individually expressed
T3 sequence (P37088 1-669): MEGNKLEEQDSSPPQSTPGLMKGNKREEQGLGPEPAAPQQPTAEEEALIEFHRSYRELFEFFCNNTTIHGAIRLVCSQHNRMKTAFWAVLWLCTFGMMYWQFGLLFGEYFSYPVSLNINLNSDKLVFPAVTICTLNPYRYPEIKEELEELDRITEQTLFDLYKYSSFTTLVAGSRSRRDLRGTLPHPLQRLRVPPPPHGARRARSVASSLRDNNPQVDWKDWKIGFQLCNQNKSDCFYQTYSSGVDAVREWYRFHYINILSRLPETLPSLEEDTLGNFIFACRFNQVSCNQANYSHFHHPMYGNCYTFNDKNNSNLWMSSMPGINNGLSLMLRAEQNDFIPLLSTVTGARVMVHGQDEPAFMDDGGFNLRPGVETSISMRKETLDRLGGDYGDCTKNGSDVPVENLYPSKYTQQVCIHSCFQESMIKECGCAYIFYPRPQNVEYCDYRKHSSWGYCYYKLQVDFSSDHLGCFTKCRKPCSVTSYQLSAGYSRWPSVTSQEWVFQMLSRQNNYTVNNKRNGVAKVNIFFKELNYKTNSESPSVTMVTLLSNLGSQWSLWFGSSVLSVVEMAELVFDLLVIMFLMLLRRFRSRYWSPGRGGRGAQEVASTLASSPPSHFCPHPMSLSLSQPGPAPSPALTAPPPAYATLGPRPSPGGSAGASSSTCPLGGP
Method: as §1, with “The beads were then washed 5× with NP-40 buffer. Bound protein was eluted by boiling at 95° C. for 10 minutes in 75 μL of 2×LDS NuPAGE sample buffer with 1× sample reducing agent followed by centrifugation at 16,300×g for 2 minutes. Samples were resolved on 4-12% Bis-Tris gels in MES and transferred to a nitrocellulose membrane using iBlot, setting P3 for 8 min (Invitrogen, Carlsbad, Calif., USA).” left out

CFTR = molecular target: T4, CFTR (Homo sapiens, UniProt P13569); assay: CFTR activity in Xenopus oocytes co-expressing β2 adrenergic receptor, isoproterenol stimulated; format: cell-based; details: 10 μM isoproterenol
T4 construct: expressed in transfected cells; host or cells: Xenopus oocytes
T4 sequence (P13569 whole entry, species assumed): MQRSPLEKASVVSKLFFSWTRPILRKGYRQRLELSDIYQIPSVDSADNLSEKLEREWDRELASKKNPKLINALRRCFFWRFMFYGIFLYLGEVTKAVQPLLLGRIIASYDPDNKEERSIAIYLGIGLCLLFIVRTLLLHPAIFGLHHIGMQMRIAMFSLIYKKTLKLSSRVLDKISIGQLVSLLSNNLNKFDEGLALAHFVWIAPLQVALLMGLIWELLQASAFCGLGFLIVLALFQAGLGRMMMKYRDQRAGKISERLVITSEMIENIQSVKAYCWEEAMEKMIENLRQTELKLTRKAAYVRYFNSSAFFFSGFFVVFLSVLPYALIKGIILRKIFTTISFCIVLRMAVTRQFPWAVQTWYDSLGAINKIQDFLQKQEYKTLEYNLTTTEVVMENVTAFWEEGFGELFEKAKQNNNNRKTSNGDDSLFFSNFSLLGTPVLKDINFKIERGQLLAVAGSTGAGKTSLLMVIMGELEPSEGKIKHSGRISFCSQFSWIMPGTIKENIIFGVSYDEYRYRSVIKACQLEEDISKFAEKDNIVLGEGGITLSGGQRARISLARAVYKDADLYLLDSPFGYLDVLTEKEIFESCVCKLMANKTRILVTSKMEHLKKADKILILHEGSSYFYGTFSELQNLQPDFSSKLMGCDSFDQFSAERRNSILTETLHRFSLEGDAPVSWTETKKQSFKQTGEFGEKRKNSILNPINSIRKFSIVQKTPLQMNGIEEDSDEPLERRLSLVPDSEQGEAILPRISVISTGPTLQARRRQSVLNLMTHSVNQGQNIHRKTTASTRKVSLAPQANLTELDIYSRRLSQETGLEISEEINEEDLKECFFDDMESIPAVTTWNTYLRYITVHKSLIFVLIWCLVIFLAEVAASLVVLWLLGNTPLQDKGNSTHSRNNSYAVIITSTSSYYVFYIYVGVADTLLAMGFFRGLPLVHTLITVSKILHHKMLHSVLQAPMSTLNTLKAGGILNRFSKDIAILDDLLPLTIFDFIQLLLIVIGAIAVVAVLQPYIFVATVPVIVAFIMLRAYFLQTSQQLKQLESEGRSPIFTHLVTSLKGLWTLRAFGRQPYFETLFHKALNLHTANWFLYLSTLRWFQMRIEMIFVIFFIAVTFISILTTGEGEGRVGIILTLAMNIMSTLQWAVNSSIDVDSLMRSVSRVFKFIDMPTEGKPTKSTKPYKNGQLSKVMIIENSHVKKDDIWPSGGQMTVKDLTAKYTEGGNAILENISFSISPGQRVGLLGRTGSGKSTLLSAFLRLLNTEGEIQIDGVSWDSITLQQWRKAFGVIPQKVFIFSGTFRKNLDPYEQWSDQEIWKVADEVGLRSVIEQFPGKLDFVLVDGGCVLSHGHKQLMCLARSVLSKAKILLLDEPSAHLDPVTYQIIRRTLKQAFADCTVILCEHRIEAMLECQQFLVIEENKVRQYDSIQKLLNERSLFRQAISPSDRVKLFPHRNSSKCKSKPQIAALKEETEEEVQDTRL

T2 sequence (P51170 whole entry): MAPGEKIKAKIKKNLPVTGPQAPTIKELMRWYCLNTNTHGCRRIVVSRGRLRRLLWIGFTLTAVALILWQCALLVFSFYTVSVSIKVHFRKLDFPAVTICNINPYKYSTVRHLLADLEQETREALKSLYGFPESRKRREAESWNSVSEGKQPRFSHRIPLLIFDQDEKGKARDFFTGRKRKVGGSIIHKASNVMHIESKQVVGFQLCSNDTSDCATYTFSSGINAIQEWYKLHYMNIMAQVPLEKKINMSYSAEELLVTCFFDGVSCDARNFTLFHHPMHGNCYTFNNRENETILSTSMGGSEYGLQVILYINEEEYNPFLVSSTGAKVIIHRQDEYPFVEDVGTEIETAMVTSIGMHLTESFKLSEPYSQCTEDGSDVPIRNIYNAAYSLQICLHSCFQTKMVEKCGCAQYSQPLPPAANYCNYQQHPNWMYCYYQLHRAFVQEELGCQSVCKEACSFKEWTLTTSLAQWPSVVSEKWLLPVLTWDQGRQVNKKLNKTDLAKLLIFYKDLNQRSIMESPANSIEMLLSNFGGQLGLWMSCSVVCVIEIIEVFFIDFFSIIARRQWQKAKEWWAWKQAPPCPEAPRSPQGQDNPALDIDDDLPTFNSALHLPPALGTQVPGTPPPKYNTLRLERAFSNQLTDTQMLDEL

For GGLPVPLDQTLPLNVNPA [S18], the “glycosylation dependence of β-ENaC interaction” value (βENaC; EndoH treated elution, tunicamycin treated cells) was “glycosylation dependent”, the “binding to βENaC (pull-down)” value (βENaC; subunits individually expressed, biotinylated peptide) was “binds exclusively to βENaC” and the “binding to γENaC (pull-down)” value (γENaC) was “without any detectable binding”. For the same molecule, the “binding to αENaC (pull-down)” value (αENaC) was “without any detectable binding”.

B1: SPLUNC1: human SPLUNC1 (SEQ ID NO:1), 256 amino acid secreted PLUNC family protein; rSPLUNC1 is the purified V5/6His-tagged recombinant form (protein, listed as Homo sapiens)
chain: MFQTGGLIVFYGLLAQTMAQFGGLPVPLDQTLPLNVNPALPLSPTGLAGSLTNALSNGLLSGGLLGILENLPLLDILKPGGGTSGGLLGGLLGKVTSVIPGLNNIIDIKVTDPQLLELGLVQSPDGHRLYVTIPLGIKLQVNTPLVGASLLRLAVKLDITAEILAVRDKQERIHLVLGDCTHSPGSLQISLLDGLGPLPIQGLLDSLTGILNKVLPELVQGNVCPLVNEVLRGLDITLVHDIVNMLIHGLQFVIKV
modifications: V5/6His tag in recombinant form
notes: rSPLUNC1 is the purified V5/6His-tagged recombinant form
B1 was tested, and the CFTR activity (CFTR; 5 ng/ml rSPLUNC1 exposure) was “no inhibitory effect on CFTR activity” and the CFTR activity (CFTR; injection of SPLUNC1 cRNA) was “no inhibitory effect on CFTR activity”.
